Data taken from ChEMBL document CHEMBL5154887, “Novel CRBN-Recruiting Proteolysis-Targeting Chimeras as Degraders of Stimulator of Interferon Genes with In Vivo Anti-Inflammatory Efficacy” (J Med Chem, 2022).
The source made the active and inactive calls. The rule behind the calls is not given here.

Tests used:
[1] = Toxicity in cisplatin-induced acute kidney injury in C57BL/6J mouse model assessed as tubular epithelial edema in kidney at 30 to 60 mg/kg, ip pretreated for 1 hr followed by cisplatin administration and measured after 72 hrs by H and E staining based analysis; assay type: organism-based; details: in vivo, 73 h, dose 30-60 mg/kg
[2] = biological target: Stimulator of interferon genes protein (Homo sapiens) (UniProt Q86WV6); assay: Inhibition of STING pathway in human THP-1 cells assessed as inhibition of cGAMP-triggered NF-kappaB p-p65 expression preincubated for 2 hrs followed by cGAMP stimulation and measured after 24 hrs by Western blot analysis; assay type: cell-based; details: dose 0-20 µM, time 26.0 hrs, DDE = dose-dependent effect
[3] = Toxicity in cisplatin-induced acute kidney injury in C57BL/6J mouse model assessed as tubular obstruction in kidney at 30 to 60 mg/kg, ip pretreated for 1 hr followed by cisplatin administration and measured after 72 hrs by H and E staining based analysis; assay type: organism-based; details: in vivo, 73 h, dose 30-60 mg/kg
[4] = Toxicity in C57BL/6J mouse assessed as body weight loss at 60 mg/kg, ip measured after 4 days relative to control; assay type: organism-based; details: in vivo, 96 h, time 4 day
Mus musculus [5] = assay: (§1) In vivo inhibition of STING signalling pathway in ip dosed cisplatin-induced acute kidney injury in C57BL/6J mouse model assessed as reduction in IL-6 expression in blood of mouse eyeballs pretreated for 1 hr followed by cisplatin administration and measured after 72 hrs by ELISA; assay type: functional, organism-based; details: time 73.0 hrs, DDE = dose-dependent effect
[6] = as §1, with “in” for “in ip dosed”, “STING protein” for “IL-6”, “kidney at 60 mg/kg, ip” for “blood of mouse eyeballs”, “Western blot analysis (Rvb= 375%)” for “ELISA”; assay type: functional; set-up: scale not given: the % may be the effect or the level left; details: time 73 hrs
[7] = Oral bioavailability in Sprague-Dawley rat at 20 mg/kg measured upto 48 hrs by UPLC-triple quadrupole MS analysis; assay type: ADME, organism-based; details: in vivo
[8] = AUC (0 to t) in Sprague-Dawley rat at 20 mg/kg, po measured upto 48 hrs by UPLC-triple quadrupole MS analysis; assay type: ADME, organism-based; set-up: dose 20 mg/kg, time < 48 hrs, route po; details: in vivo
THP-1 = assay: Inhibition of cGAS-STING signalling pathway in human THP-1 cells assessed as downregulation of cGAMP-triggered IFN-beta expression preincubated for 2 hrs followed by cGAMP stimulation and measured after 24 hrs by ELISA; assay type: cell-based; details: dose 2.5-20 µM, time 26.0 hrs, DDE = dose-dependent effect
[9] = Cytotoxicity against mouse C17.2 cells assessed as cell growth inhibition at 30 uM by MTT assay relative to control; assay type: toxicity, cell-based
[10] = Cmax in Sprague-Dawley rat at 20 mg/kg, po measured upto 48 hrs by UPLC-triple quadrupole MS analysis; assay type: ADME, organism-based; set-up: time < 48 hrs, dose 20 mg/kg, route po; details: in vivo
[11] = biological target: Protein cereblon/Stimulator of interferon genes protein (Homo sapiens, UniProt Q96SW2+Q86WV6); assay: Protac activity at CRBN/STING in human THP-1 cells assessed as increase in STING degradation at 10 uM incubated for 48 hrs by Western blot analysis relative to control; assay type: cell-based
Mus musculus [12] = assay: Renal protective activity against cisplatin-induced acute kidney injury in C57BL/6J mouse model assessed as clear cortical medullary demarcation at 60 mg/kg, ip by NMR based analysis; assay type: functional, organism-based
[13] = Renal toxicity in C57BL/6J mouse assessed as reduction in BUN level at 60 mg/kg, ip (Rvb= 8.9 mmol/L); assay type: organism-based; details: in vivo
L02 = assay: Cytotoxicity against human L02 cells assessed as reduction in cell viability at <10 uM by MTT assay; assay type: toxicity, cell-based; details: l02, 10 µM
[14] = Toxicity in cisplatin-induced acute kidney injury in C57BL/6J mouse model assessed as marked inflammatory cell exudation in kidney at 30 to 60 mg/kg, ip pretreated for 1 hr followed by cisplatin administration and measured after 72 hrs by H and E staining based analysis; assay type: organism-based; details: in vivo, 73 h, dose 30-60 mg/kg
[15] = Renal toxicity in C57BL/6J mouse assessed as reduction in creatinine level at 60 mg/kg, ip (Rvb= 8.5 umol/L); assay type: organism-based; details: in vivo
[16] = Renal toxicity in C57BL/6J mouse assessed as reduction in creatinine level at 30 mg/kg, ip (Rvb= 8.5 umol/L); assay type: organism-based; details: in vivo
Mus musculus [17] = assay: Renal protective activity against cisplatin-induced acute kidney injury in C57BL/6J mouse model assessed as reduction in kidney swelling at 60 mg/kg, ip by NMR based analysis; assay type: functional, organism-based
Mus musculus [18] = assay: In vivo inhibition of STING signalling pathway in ip dosed cisplatin-induced acute kidney injury in C57BL/6J mouse model assessed as reduction in IFN-beta expression in blood of mouse eyeballs pretreated for 1 hr followed by cisplatin administration and measured after 72 hrs by ELISA; assay type: functional, organism-based; details: time 73.0 hrs, DDE = dose-dependent effect
[19] = Clearance in Sprague-Dawley rat at 2 mg/kg, iv measured upto 48 hrs by UPLC-triple quadrupole MS analysis; assay type: ADME, organism-based; details: in vivo
[20] = AUC (0 to t) in Sprague-Dawley rat at 2 mg/kg, iv measured upto 48 hrs by UPLC-triple quadrupole MS analysis; assay type: ADME, organism-based; set-up: time < 48 hrs, dose 2 mg/kg, route iv; details: in vivo
[21] = AUC (0 to infinity) in Sprague-Dawley rat at 2 mg/kg, iv measured upto 48 hrs by UPLC-triple quadrupole MS analysis; assay type: ADME, organism-based; set-up: time < 48 hrs, dose 2 mg/kg, route iv; details: in vivo
Mus musculus [22] = assay: Antiinflammatory activity against cisplatin-induced acute kidney injury in C57BL/6J mouse model assessed as reduction in ischemic symptoms at 30 mg/kg, ip pretreated for 1 hr followed by cisplatin administration and measured after 72 hrs relative to control; assay type: functional, organism-based; details: time 73.0 hrs
[23] = Clearance in Sprague-Dawley rat at 20 mg/kg, po measured upto 48 hrs by UPLC-triple quadrupole MS analysis; assay type: ADME, organism-based; details: in vivo
[24] = Apparent volume of distribution in Sprague-Dawley rat at 2 mg/kg, iv measured upto 48 hrs by UPLC-triple quadrupole MS analysis; assay type: ADME, organism-based; details: in vivo, read-out: Vz
Mus musculus [25] = assay: Renal protective activity against cisplatin-induced acute kidney injury in C57BL/6J mouse model assessed as improvement in renal blood flow velocity at 60 mg/kg, ip by B-mode ultrasound scanner analysis; assay type: functional, organism-based
[26] = MRT (0 to infinity) in Sprague-Dawley rat at 2 mg/kg, iv measured upto 48 hrs by UPLC-triple quadrupole MS analysis; assay type: ADME, organism-based; details: in vivo
[27] = AUC (0 to infinity) in Sprague-Dawley rat at 20 mg/kg, po measured upto 48 hrs by UPLC-triple quadrupole MS analysis; assay type: ADME, organism-based; set-up: dose 20 mg/kg, time < 48 hrs, route po; details: in vivo
[28] = Half life in Sprague-Dawley rat at 20 mg/kg, po measured upto 48 hrs by UPLC-triple quadrupole MS analysis; assay type: ADME, organism-based; details: in vivo

Chain of Protein cereblon/Stimulator of interferon genes protein (Q86WV6 whole entry, looked up): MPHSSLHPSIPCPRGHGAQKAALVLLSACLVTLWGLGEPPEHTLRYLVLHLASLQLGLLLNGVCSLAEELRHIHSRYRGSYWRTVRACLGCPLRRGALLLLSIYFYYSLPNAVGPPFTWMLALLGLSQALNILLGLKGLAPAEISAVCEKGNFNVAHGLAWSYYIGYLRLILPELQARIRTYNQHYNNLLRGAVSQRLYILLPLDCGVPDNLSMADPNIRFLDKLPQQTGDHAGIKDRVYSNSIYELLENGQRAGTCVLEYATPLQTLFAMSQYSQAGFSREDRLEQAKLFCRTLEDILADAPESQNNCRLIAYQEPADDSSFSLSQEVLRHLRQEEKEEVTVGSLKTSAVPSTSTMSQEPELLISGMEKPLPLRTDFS
Chain of Protein cereblon/Stimulator of interferon genes protein (Q96SW2 whole entry, looked up): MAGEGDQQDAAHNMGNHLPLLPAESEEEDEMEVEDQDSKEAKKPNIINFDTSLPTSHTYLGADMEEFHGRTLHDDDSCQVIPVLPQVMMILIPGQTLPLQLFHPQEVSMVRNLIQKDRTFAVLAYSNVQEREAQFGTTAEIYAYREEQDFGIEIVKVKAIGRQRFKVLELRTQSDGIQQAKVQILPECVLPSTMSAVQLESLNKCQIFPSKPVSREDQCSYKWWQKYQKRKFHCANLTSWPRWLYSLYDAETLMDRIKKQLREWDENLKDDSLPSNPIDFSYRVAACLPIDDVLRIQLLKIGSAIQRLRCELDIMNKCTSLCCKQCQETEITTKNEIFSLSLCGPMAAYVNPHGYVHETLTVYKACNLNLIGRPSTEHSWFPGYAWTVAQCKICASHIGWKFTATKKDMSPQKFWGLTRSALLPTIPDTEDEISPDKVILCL
Chain of Stimulator of interferon genes protein (Homo sapiens) (Q86WV6 whole entry): as the sequence (Q86WV6 whole entry, looked up) above

O=C(/C=C/C(=O)Nc1ccc(NC(=O)c2ccc([N+](=O)[O-])o2)cc1)NCCCCCCNc1cccc2c1C(=O)N(C1CCC(=O)NC1=O)C2=O (stereo not given)
Activity [1]: Non-Toxic
inhibition [2]: Dde
Activity [3]: Non-Toxic
Activity [4]: 9%
inhibition (Mus musculus [5]): Dde
Activity [6]: 70%
bioavailability [7]: 2.15%
AUC(0-t) at 48 h [8]: 52.2 ng·h/mL
Activity (THP-1): Dde
inhibition at 30 µM [9]: 15.6%
Cmax [10]: 8.37 ng/mL
Activity [11]: 76%
Activity (Mus musculus [12]): Active
Activity [13]: 16.3 mmol/L
Activity (L02): Non-Toxic
Activity [14]: Non-Toxic
Activity [15]: 14.8 µmol/L
Activity [16]: 26.8 µmol/L
Activity (Mus musculus [17]): Active
inhibition (Mus musculus [18]): Dde
clearance [19]: 6.8 L/h/kg
AUC(0-t) at 48 h [20]: 257 ng·h/mL
AUC(0-inf) [21]: 259 ng·h/mL
Activity (Mus musculus [22]): Active
CL/F [23]: 429 L/h/kg
Vd [24]: 38 L/kg
Activity (Mus musculus [25]): Active
MRT inf [26]: 1.95 h
AUC(0-inf) [27]: 55.7 ng·h/mL
half-life [28]: 7.36 h
